One experiment concerns the target human PIM2 (Homo sapiens (Human), UniProt Q9P1W9). Description: PIM2 kinase inhibition assay: Dowex technique. In kind it is biochemical. The settings on record: ATP 4 μM, Aktide 5 μM, enzyme 1.5 nM; read-out: PIM-2 IC50. On the procedure:
Method for PIM2 Kinase Inhibition Assay: Dowex Technique
The buffer for PIM2 assay was composed of HEPES 50 mM, at pH 7.5, with 1 mM MgCl2, 1 mM DTT, 3 μM Na3VO4, and 0.2 mg/mL BSA.
Full-length human PIM2 was expressed and purified as described in Fedorov O, et al., PNAS 2007 104, 51, 20523-28. ii. Assay Conditions (Final Concentrations)
Enzyme concentration=1.5 nM; ATP=4 μM; ^33P-γ-ATP=1 nM
Aktide substrate (Chemical Abstract Service Registry Number 324029-01-8)=5 μM iii. Robotized Dowex Assay
See above: same procedure as described for PIM1.

The target of a further experiment is human PIM1 (Homo sapiens (Human), UniProt P11309). Description: Biochemical assay for inhibitors of PIM1 kinase activity (trans-phosphorylation, Dowex technique). As to conditions: ATP 200 μM, Aktide 25 μM, enzyme 1 nM; read-out: PIM-1 IC50. The method, then:
Biochemical Assay for Inhibitors of PIM1 Kinase Activity
The inhibitory activity of putative kinase inhibitors and the potency of selected compounds were determined using a trans-phosphorylation assay.
Specific peptide or protein substrates were trans-phosphorylated by their specific ser-thr or tyr kinase in the presence of ATP traced with ^33P-γ-ATP, and in the presence of their own optimal buffer and cofactors.
At the end of the phosphorylation reaction, more than 98% unlabeled ATP and radioactive ATP were captured by an excess of the ion exchange dowex resin; the resin then settled down to the bottom of the reaction plate by gravity. Supernatant was subsequently withdrawn and transferred into a counting plate, then evaluated by β-counting.
Reagents/Assay Conditions i. Dowex Resin Preparation
500 g of wet resin (SIGMA, custom prepared resin DOWEX 1×8 200-400 mesh, 2.5 Kg) were weighed out and diluted to 2 L in 150 mM sodium formate, pH 3.00.
The resin was allowed to settle down (some hours) and then the supernatant was discarded.
After three washes as above over a couple of days, the resin was allowed to settle and two volumes (wrt the resin volume) of 150 mM sodium formate buffer were added.
The pH was then measured and should have been around 3.00.
The washed resin was stable for more than one week; the stock resin was kept at 4° C. before use.
The buffer for PIM1 assay was composed of HEPES 50 mM, at pH 7.5, with 10 mM MgCl2, 1 mM DTT, 3 μM NaVO3, and 0.2 mg/mL BSA.
Full-length human PIM1 was expressed and purified as described in Bullock A N, et al., J. Biol. Chem. 2005, 280, 41675-82.
1.7 μM PIM1 was incubated 1 h at 28° C. in the presence of 125 μM ATP.
ATP concentration: 200 μM; ^33P-γ-ATP: 6 nM; Enzyme concentration: 1 nM Substrate concentration Aktide (Chemical Abstract Service Registry Number 324029-01-8): 25 μM iv. Robotized Dowex Assay
The test mix consisted of:
1) 3× Enzyme mix (done in Kinase Buffer 3×), 5 μL/well
2) 3× substrate and ATP mix (done in ddH2O), together with ^33P-γ-ATP, 5 μL/well 3) 3× test compounds (diluted into ddH2O—3% DMSO)—5 μL/well See below for compound dilution and assay scheme […]
An automated station (Biomek FX, Beckman) was used for serial dilutions, producing 1:3 dilutions in 100% DMSO, from line A1 to A10, for all the compounds in the column.
Data were analyzed by an internally customized version of the “Assay Explorer” SW package, which provided sigmoidal fitting of the ten-dilution curves for IC50 determination in secondary assay/hit confirmation routines.

For a further experiment, the system named is BaF3-PIM1 cells. Description: In vitro cell proliferation assay (CellTiter-Glo), BaF3-PIM1. In kind it is cell-based. The settings on record: 72 hours. On the procedure: In Vitro Cell Proliferation Assay
BaF3-PIM1 and MV-4-11 cells were seeded at 125 cells/well and 1250 cells/well respectively in a 384-well white plates in complete medium and treated with compounds dissolved in 0.1% DMSO, 24 h after seeding.
The cells were incubated at 37° C. and 5% CO2 and after 72 hours the plates were processed using CellTiter-Glo assay (Promega) following the manufacturer's instruction.
CellTiter-Glo was a homogenous method based on the quantification of the ATP present, an indicator of metabolitically active cells. ATP was quantified using a system based on luciferase and D-luciferin resulting into light generation. The luminescent signal was proportional to the number of cells present in culture.
Briefly 25 μl/well reagent solution were added to each wells and after 5 minutes shacking microplates were red by Envision (PerkinElmer) luminometer. The luminescent signal was proportional to the number of cells present in culture.
Inhibitory activity was evaluated comparing treated versus control data using Assay Explorer (MDL) program. IC50 was calculated using sigmoidal interpolation curve.

Structures can show the parent of a compound that is named as a salt.

Sequence of human PIM2 (Q9P1W9 whole entry): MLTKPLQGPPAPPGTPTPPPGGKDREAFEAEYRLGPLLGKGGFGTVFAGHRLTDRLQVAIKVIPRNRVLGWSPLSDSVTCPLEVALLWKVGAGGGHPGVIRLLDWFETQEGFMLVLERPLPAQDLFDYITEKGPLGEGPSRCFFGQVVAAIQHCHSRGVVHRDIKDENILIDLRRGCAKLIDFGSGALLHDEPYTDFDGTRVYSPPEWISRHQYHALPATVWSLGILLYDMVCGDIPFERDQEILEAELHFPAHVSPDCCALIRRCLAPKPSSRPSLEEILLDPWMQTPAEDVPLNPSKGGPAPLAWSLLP
Sequence of human PIM1 (P11309 whole entry): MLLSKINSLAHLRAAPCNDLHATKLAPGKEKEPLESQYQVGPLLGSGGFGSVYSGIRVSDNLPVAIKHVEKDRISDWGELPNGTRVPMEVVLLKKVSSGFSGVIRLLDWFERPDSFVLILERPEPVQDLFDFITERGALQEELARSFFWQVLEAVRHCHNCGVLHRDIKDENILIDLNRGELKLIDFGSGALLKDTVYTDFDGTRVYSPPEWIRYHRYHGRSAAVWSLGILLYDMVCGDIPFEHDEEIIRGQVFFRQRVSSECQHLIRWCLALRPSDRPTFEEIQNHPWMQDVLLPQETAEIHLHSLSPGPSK

What is called IC50 is the midpoint of a concentration-inhibition curve. Take `NCCC1CNC(=O)c2cc(-c3cccc(Cl)c3)c(-c3ccccc3)n21` (stereo not drawn) [Compound 17, 4-(2-aminoethyl)-7-(3-chlorophenyl)-6-phenyl-3,4-dihydropyrrolo[1,2-a]pyrazin-1(2H)-one trifluoroacetate]: the IC50 is 117 nM at human PIM2, 34 nM on human PIM1 and 450 nM in the experiment with BaF3-PIM1 cells.

Turning to `NCCC1CNC(=O)c2cc(-c3cccc(OC(F)(F)F)c3)c(-c3cccc(N)c3)n21` (stereo not drawn) [Compound 32, 4-(2-aminoethyl)-6-(3-aminophenyl)-7-[3-(trifluoromethoxy)phenyl]-3,4-dihydropyrrolo[1,2-a]pyrazin-1(2H)-one hydrochloride], the IC50 at human PIM2 was 69 nM; at human PIM1 it was 8 nM; in the experiment with BaF3-PIM1 cells, 2020 nM.

Turning to `NCCC1CNC(=O)c2cc(-c3cccc(OC(F)(F)F)c3)c(-c3ccc(CO)cc3)n21` (stereo not drawn) [Compound 33, 4-(2-aminoethyl)-6-[4-(hydroxymethyl)phenyl]-7-[3-(trifluoromethoxy)phenyl]-3,4-dihydropyrrolo[1,2-a]pyrazin-1(2H)-one hydrochloride], the values for the IC50 at human PIM2, at human PIM1 and in the experiment with BaF3-PIM1 cells were 15 nM, 4 nM and 598 nM, respectively.

With `NCCC1CNC(=O)c2cc(-c3cccc(C(F)(F)F)c3)c(-c3ccc(CO)cc3)n21` (stereo not drawn) [Compound 38, 4-(2-aminoethyl)-6-[4-(hydroxymethyl)phenyl]-7-[3-(trifluoromethyl)phenyl]-3,4-dihydropyrrolo[1,2-a]pyrazin-1(2H)-one hydrochloride], the IC50 at human PIM2 was 102 nM; at human PIM1, 20 nM; in the experiment with BaF3-PIM1 cells it was 3030 nM.

As to `NCCC1CNC(=O)c2cc(-c3cccc(C(F)(F)F)c3)c(-c3ccc(O)cc3)n21` (stereo not drawn) [Compound 43, 4-(2-aminoethyl)-6-(4-hydroxyphenyl)-7-[3-(trifluoromethyl)phenyl]-3,4-dihydropyrrolo[1,2-a]pyrazin-1(2H)-one hydrochloride], the IC50 turned out to be 21 nM at human PIM2, 12 nM at human PIM1 and 7000 nM in the experiment on BaF3-PIM1 cells.

With `NCCC1CNC(=O)c2cc(-c3ccnc(Cl)c3)c(-c3ccc(CO)cc3)n21` (stereo not drawn) [Compound 44, 4-(2-aminoethyl)-7-(2-chloropyridin-4-yl)-6-[4-(hydroxymethyl)phenyl]-3,4-dihydropyrrolo[1,2-a]pyrazin-1(2H)-one hydrochloride], the IC50 on human PIM2 was determined as 110 nM; at human PIM1, 24 nM; in the experiment on BaF3-PIM1 cells, 6570 nM.

Consider `NC(=O)c1ccc(-c2c(-c3cccc(OC(F)(F)F)c3)cc3n2C(CCO)CNC3=O)cc1` (stereo not drawn) [Compound 77, 4-{4-(2-hydroxyethyl)-1-oxo-7-[3-(trifluoromethoxy)phenyl]-1,2,3,4-tetrahydropyrrolo[1,2-a]pyrazin-6-yl}benzamide], for which the IC50 is 58 nM at human PIM2, 7 nM at human PIM1 and 2320 nM with BaF3-PIM1 cells.

As for `CN(C)CCNC(=O)c1ccc(-c2c(-c3cccc(OC(F)(F)F)c3)cc3n2C(CCO)CNC3=O)cc1` (stereo not drawn) [Compound 78, N-[2-(dimethylamino)ethyl]-4-{4-(2-hydroxyethyl)-1-oxo-7-[3-(trifluoromethoxy)phenyl]-1,2,3,4-tetrahydropyrrolo[1,2-a]pyrazin-6-yl}benzamide trifluoroacetate], the IC50 is 90 nM on human PIM2, 6 nM at human PIM1 and 4070 nM with BaF3-PIM1 cells.

For the compound `CN(C)C(=O)c1ccc(-c2c(-c3cccc(OC(F)(F)F)c3)cc3n2C(CCO)CNC3=O)cc1` (stereo not drawn) [Compound 79, 4-{4-(2-hydroxyethyl)-1-oxo-7-[3-(trifluoromethoxy)phenyl]-1,2,3,4-tetrahydropyrrolo[1,2-a]pyrazin-6-yl}-N,N-dimethylbenzamide], the IC50 was found to be 93 nM on human PIM2, 13 nM on human PIM1 and 1220 nM with BaF3-PIM1 cells.

On to `CNC(=O)c1ccc(-c2c(-c3cccc(OC(F)(F)F)c3)cc3n2C(CCO)CNC3=O)cc1` (stereo not drawn) [Compound 80, 4-{4-(2-hydroxyethyl)-1-oxo-7-[3-(trifluoromethoxy)phenyl]-1,2,3,4-tetrahydropyrrolo[1,2-a]pyrazin-6-yl}-N-methylbenzamide], for which the figures for the IC50 on human PIM2, at human PIM1 and with BaF3-PIM1 cells were 75 nM, 20 nM and 3810 nM, respectively.

Regarding `CN1CCC(NC(=O)c2ccc(-c3c(-c4cccc(OC(F)(F)F)c4)cc4n3C(CCO)CNC4=O)cc2)CC1` (stereo not drawn) [Compound 81, 4-{4-(2-hydroxyethyl)-1-oxo-7-[3-(trifluoromethoxy)phenyl]-1,2,3,4-tetrahydropyrrolo[1,2-a]pyrazin-6-yl}-N-(1-methylpiperidin-4-yl)benzamide trifluoroacetate], the IC50 on human PIM2 was 69 nM; at human PIM1, 11 nM; in the experiment with BaF3-PIM1 cells it was 6050 nM.

For `O=C1NCC(CCO)n2c1cc(-c1cccc(OC(F)(F)F)c1)c2-c1ccc(CO)cc1` (stereo not drawn) [Compound 84, 4-(2-hydroxyethyl)-6-[4-(hydroxymethyl)phenyl]-7-[3-(trifluoromethoxy)phenyl]-3,4-dihydropyrrolo[1,2-a]pyrazin-1(2H)-one], the results for the 50% inhibitory concentration (IC50) on human PIM2, at human PIM1 and with BaF3-PIM1 cells were 90 nM, 11 nM and 224 nM, respectively.

Consider `NCC[C@H]1CNC(=O)c2cc(-c3cccc(OC(F)(F)F)c3)c(-c3ccc(O)cc3)n21` [Compound 93, (4S)-4-(2-aminoethyl)-6-(4-hydroxyphenyl)-7-[3-(trifluoromethoxy)phenyl]-3,4-dihydropyrrolo[1,2-a]pyrazin-1(2H)-one hydrochloride], for which the results for the half-inhibitory concentration (IC50) on human PIM2, on human PIM1 and in the experiment on BaF3-PIM1 cells were 16 nM, 1 nM and 699 nM, respectively.

Regarding `CS(=O)(=O)c1ccc(-c2c(-c3cccc(OC(F)(F)F)c3)cc3n2[C@@H](CCN)CNC3=O)cc1` [Compound 96, (4S)-4-(2-aminoethyl)-6-[4-(methylsulfonyl)phenyl]-7-[3-(trifluoromethoxy)phenyl]-3,4-dihydropyrrolo[1,2-a]pyrazin-1(2H)-one hydrochloride], the IC50 on human PIM2 came to 3 nM; at human PIM1, 1 nM; in the experiment on BaF3-PIM1 cells, 5470 nM.

For the compound `NCCC[C@H]1CNC(=O)c2cc(-c3cccc(OC(F)(F)F)c3)c(-c3ccc(O)cc3)n21` [Compound 104, (4S)-4-(3-aminopropyl)-6-(4-hydroxyphenyl)-7-[3-(trifluoromethoxy)phenyl]-3,4-dihydropyrrolo[1,2-a]pyrazin-1(2H)-one hydrochloride], the IC50 was 48 nM on human PIM2, 4 nM at human PIM1 and 7000 nM with BaF3-PIM1 cells.

For the compound `NCCC[C@H]1CNC(=O)c2cc(-c3cccc(OC(F)(F)F)c3)c(-c3ccc(CO)cc3)n21` [Compound 105, (4S)-4-(3-aminopropyl)-6-[4-(hydroxymethyl)phenyl]-7-[3-(trifluoromethoxy)phenyl]-3,4-dihydropyrrolo[1,2-a]pyrazin-1(2H)-one hydrochloride], the results for the IC50 at human PIM2, at human PIM1 and with BaF3-PIM1 cells were 109 nM, 16 nM and 6950 nM, respectively.
